Measured values from patent US20250281621A1, “GPC3 APTAMERS AND VARIANTS AND USE THEREOF” (Guardian Therapeutics, LLC, priority 2020, published 2025).
Where a name gives a salt, the structure may show the parent alone. Read-outs that look alike come from different tables or passages of the source.

Key:
[1] = tested on: Hep3B xenograft; details: 30 mg/kg, oral, QD 28 days
[2] = tested on: GPC3^− HEK293 cells; experiment: Flow cytometry binding control with GPC3− HEK293 cells
Method: (§1) Two independent SELEX selections were carried to select clones that specifically bind to GPC3. Seven to nine rounds of nitrocellullose filter SELEX (Jhaveri et al., In vitro selection of RNA aptamers to a protein target by filter immobilization. Curr Protoc Nucleic Acid Chem. 2001, Chapter 9: Unit 9.3. doi: 10.1002/0471142700.nc0903s00. PMID: 18428881) were preformed using recombinant GPC3 protein. DNA clones from the final rounds of SELEX were sent for next generation sequencing and the data were analyzed for abundance. The highest abundant sequences (clones) were made via chemical synthesis and used in screening. The clones were screened for GPC3 binding via flow cytometry using engineered HEK293 cells overexpressing GPC3 (GPC3+ HEK293).
(§2) Binding of aptamer variants to GPC3 was tested with melting curve analysis (thermofluorimetric analysis). The control of experiment was carried out similarly with GPC3^− HEK293 cells.

[3] = target: T1, GPC3 (Homo sapiens, UniProt P51654); experiment: GPC3 binding via flow cytometry using GPC3+ HEK293 cells; set-up: expressed in transfected cells; host or cells: engineered HEK293 cells overexpressing GPC3; details: for GPC3 binding activity (MFI): GPC3^+ HEK293 cells; for Kd: flow cytometry using GPC3+ HEK293 cells
Method: as §1
Additional variants surrounding the core motif were made in which stem 2 (as depicted in FIG. 1) is extended by 1 or 2 additional base pairs (GRX1187 and GRX2101 respectively) or replaced with an alternative stem and loop sequence (GRX958). Additionally, a construct was designed in which stem 2 is closed with a 4 base loop and stem 1 is open creating a new 5′ and 3′ end, GRX2102. […] (Table 7)

[4] = Melting curve analysis (thermofluorimetric analysis); type: physicochemical; details: compared to original clone F14, #Min4 and #Min5
Method: as §2

[5] = target: T1, GPC3; experiment: Binding activity of minimers incl. refolding and freeze/thaw tests
From the text: When the lineal GRX8 sequence is refolded, the binding activity of GRX8 improves.
(§3) The best minimer, GRX46, as well as combinations of variants with top activities were selected for further evaluation (Table 6).

[6] = target: T1, GPC3; experiment: Binding kinetics of top minimers (Ka, Kd, KD)
From the text: as §3

[7] = target: T2, endogenously expressed GPC3 (Homo sapiens, UniProt P51654); experiment: Binding to cancer cells endogenously expressing GPC3 (Hep3B, HepG2, NCI-H446, Huh7); details: data not shown; for need of refolding for maximal activity: binding to Hep3B cells
T2 construct: endogenously expressed GPC3 on different cancer cells; endogenous in cells; host or cells: Hep3B, HepG2, NCI-H446, Huh7
From the text: Human hepatocellular Carcinoma cells HepG2 and Hep 3B overexpressing GPC3 were used to test the affinity of the selected positive clones. The binding studies indicate that several selected aptamer candidates (Table 3) from both libraries can bind human hepatocellular Carcinoma cells with high affinity.
A pool of partial randomization sequences from GRX8 was created and selected by cell-SELEX using GPC3^+ HEK293 cells. Those variants comprise various changes to the structural elements of GRX8, including changes to the external loop, stack, helix, hairpin loop and stem, etc. The clones were further screened with Hep3B cells and minimized based on original structure. The minimer #Min9 was further randomly mutagenized for sequence changes that can improve the binding affinity to GPC3. Another minimer variant (ID No.: GRX46)
with increased activity was further tested.

[8] = tested on: Hep3B xenograft; experiment: GRX26 in Hep3B xenograft mouse model; details: 28 Days; for Relative tumor volume growth (Day 28): vehicle = 1.00
Method: (SEQ ID NO.: 32) (ID NO. #GRX26). GRX26 was tested in Hep3B xenograft mouse model for its activity in vivo (Table 8).

[9] = tested on: Hep3B xenograft
[10] = tested on: Hep3B xenograft; remark: listed apart in the source
[11] = target: T3, Glypican-3 (GPC3) (UniProt P51654;P51654 P51654:25-358,P51654:359-554); experiment: flow; GPC3+ HEK293 cells; details: tags: overexpressed in engineered HEK293 cells (GPC3+ HEK293)
[12] = target: T3, Glypican-3 (GPC3); experiment: assay and GPC3 source not stated; fusion does not affect GPC3 binding; details: tags: recombinant GPC3 used for SELEX; source inferred for kinetic assay
[13] = 5 mg/kg, IP, QD/7Days, vehicle = 1.00

CNC(=O)c1cc(Oc2ccc(NC(=O)Nc3ccc(Cl)c(C(F)(F)F)c3)cc2)ccn1 [Sorafenib Tosylate]
% of body weight loss (Day 28) [1]: 9.33%

AAGCATTACCGGGTTGCTACCCAAGGACAAGAGTCGATGATGCTT (listed as DNA, chemistry not fully specified) [Min2, 27]
GPC3 binding activity (MFI) [2]: 720 | binding activity to GPC3^+ HEK293 cells compared to full sequence of clone F14 [3]: significantly increased | GPC3 binding activity (MFI) [3]: 16652

AAGCCATTACCGGGTTGCTACCCAAGGACAAGAGTCGATGATGCTT (listed as DNA, chemistry not fully specified) [Min1, 26]
GPC3 binding activity (MFI) [2]: 579 | binding activity to GPC3^+ HEK293 cells compared to full sequence of clone F14 [3]: significantly increased | GPC3 binding activity (MFI) [3]: 11403

AAGCCATTACCGGGTTGCTACCCGAGGACAAGAGTCGATGATGCTT (listed as DNA, chemistry not fully specified) [Min3, 28]
GPC3 binding activity (MFI) [2]: 444 | GPC3 binding activity (MFI) [3]: 377

AAGCCATTATCGGGTTGCTACCCAAGGACAAGAGTCGATGATGCTT (listed as DNA, chemistry not fully specified) [Min4, 29]
GPC3 binding activity (MFI) [2]: 1072 | binding activity to GPC3^+ HEK293 cells compared to full sequence of clone F14 [3]: significantly increased | GPC3 binding activity (MFI) [3]: 23261

CATTATCGGGTTGCTACCCAAGGACAAGAGTCGATGATG (listed as DNA, chemistry not fully specified) [Min5, 30]
GPC3 binding activity (MFI) [2]: 946 | binding activity to GPC3^+ HEK293 cells compared to full sequence of clone F14 [3]: significantly increased | GPC3 binding activity (MFI) [3]: 19484

CATTATCGGGTTGCTACCCGAGGACAAGAGTCGATGATG (listed as DNA, chemistry not fully specified) [Min6, 31]
GPC3 binding activity (MFI) [2]: 507 | GPC3 binding activity (MFI) [3]: 3619

CGGGAGUCCUAGGAAGGACGGGUUGCUACCCAAGUCCCG (listed as RNA, chemistry not fully specified) [GRX2102, 79]
Kd [3]: 26.9 nM

CGTCATCGGGTTGCTACCCAAGGACAAGAGTCGATGACG (listed as DNA, chemistry not fully specified) [Min9, 32]
thermal stability [4]: thermally more stable

CGTCGTCGGGTTGCTACCCAAGGACAAGAGTCGACGACG (listed as DNA, chemistry not fully specified) [Min9.2, 33]
thermal stability [4]: thermally more stable

CGUCAUCGGGUUGCUACCCAAGGACAAGAGUCGAUGACG (RNA aptamer, any chemical modification not given here, further chemistry not given here) [GRX8]
binding activity when the lineal sequence is refolded [5]: improves | binding affinity to exogenously expressed GPC3 ([5]; FIG. 2): high binding affinity | stability of activity in freeze/thaw tests ([5]; frequent freeze/thaw): stable and not affected by the frequent freeze/thaw tests | Ka [6]: 61900 M⁻¹ s⁻¹

CGUCAUCGGGUUGCUACCCAAGGCACCAGGAGGUGCGAUGACG (listed as RNA, chemistry not given here) [GRX2101, 78]
Kd [3]: 29.3 nM

CGUCAUCGGGUUGCUACCCAAGGCCAGGAGGCGAUGACG (listed as RNA, chemistry not fully specified) [GRX49, 25]
Kd [3]: 9 nM | binding to endogenously expressed GPC3 on cancer cells ([7]; Hep3B, HepG2, NCI-H446, Huh7): selectively bind | need of refolding for maximal activity [7]: do not require refolding for maximal activity | Ka [6]: 199000 M⁻¹ s⁻¹

CGUCAUCGGGUUGCUACCCAAGGCCCAGGAGGGCGAUGACG (listed as RNA, chemistry not given here) [GRX1187, 77]
Kd [3]: 64.2 nM

CGUCAUCGGGUUGCUACCCAAGGUCAAGAGACGAUGACG (listed as RNA, chemistry not fully specified) [GRX46]
binding activity and refolding behavior relative to GRX8 ([5]; data not shown): similar, enhanced binding activity | Ka [6]: 55400 M⁻¹ s⁻¹

CGUCAUCGGGUUGCUACCCAAGGUCAGGAGACGAUGACG (listed as RNA, chemistry not given here) [GRX8 with triple]
need of refolding for maximal activity [7]: do not require refolding for maximal activity | Ka [6]: 112000 M⁻¹ s⁻¹

CGUCAUCGGGUUGCUACCCAAGGUCAGGUGACGAUGACG (listed as RNA, chemistry not given here) [GRX8 with QUAD6]
need of refolding for maximal activity [7]: do not require refolding for maximal activity | Ka [6]: 201000 M⁻¹ s⁻¹

DM1-CGTCATCGGGTTGCTACCCAAGGACAAGAGTCGATGACG [GRX26]
% of body weight loss ([8]; 2.5 mg/kg): 10.67% | Relative tumor volume growth (Day 28) ([8]; 2.5 mg/kg): 0.69 | % of body weight loss ([8]; 10 mg/kg, IP/QD): 14.86% | Relative tumor volume growth (Day 28) ([8]; 10 mg/kg, IP/QD): 0.46

GACUAGAUCGGGUUGCUACCCAAGCUCCGGUUCAGAUCGAUGGAGGAUCUAGUC (listed as RNA, chemistry not fully specified) [GRX958, 76]
Kd [3]: 33.1 nM

GGCATCGGGTTGCTACCCAAGGACAAGAGTCGATGCC (listed as DNA, chemistry not fully specified) [Min11, 34]
thermal stability [4]: thermally more stable

Keytruda: the PD-1R inhibitor Keytruda
% of body weight loss ([9]; 10 mg/kg): 3.66% | reduction of tumor size ([9]; 10 mg/kg once every 3 days i.p., 11 days): 18% | Relative tumor volume growth (Day 11) ([9]; 10 mg/kg, vehicle = 1.00): 0.82

TCGTCGTTTTGTCGTTTTGTCGTT [CpG]
Relative tumor volume growth (Day 7) [10, 13]: 0.57 | Relative tumor volume growth (Day 18) [10, 13]: 0.47 | final immune: tumor cell ratio relative to the vehicle control ([10]; 7-day on/7-day off daily dosing schedule): 1.51±0.95

B1: GGGAGACAAGAATAAAGCGAGTTTGAAGCCATTACCGGGTTGCTACCCAAGGACAAGAGTCGATGATGCTTAGCTAG (nucleic acid)
chain: GGGAGACAAGAATAAAGCGAGTTTGAAGCCATTACCGGGTTGCTACCCAAGGACAAGAGTCGATGATGCTTAGCTAG
modifications: listed as DNA, chemistry not fully specified
notes: 12
GPC3 binding activity (MFI) [2]: 1040 | GPC3 binding activity (MFI) [3]: 5050

CGGGAGUCCUAGGAAGGACGGGUUGCUACCCAAGUCCCG (ssRNA, fully 2'-OMe) [GRX2102]
Kd ([11]; stem 2 closed with 4-base loop, stem 1 open (new 5' and 3' ends)): 26.9 nM

B2: GRX958 (ssRNA)
RNA: GACUAGAUCGGGUUGCUACCCAAGCUCCGGUUCAGAUCGAUGGAGGAUCUAGUC
modifications: fully 2'-OMe
Kd ([11]; stem 2 replaced with alternative stem and loop): 33.1 nM

B3: GRX51 (CpG7909-GRX49 fusion) (mixed)
mixed: TCGTCGTTTTGTCGTTTTGTCGTTCGUCAUCGGGUUGCUACCCAAGGCCAGGAGGCGAUGACG
modifications: PS DNA CpG7909 portion, 2'-OMe aptamer portion
IC50 [12]: 32.7 nM

CGUCAUCGGGUUGCUACCCAAGGCCCAGGAGGGCGAUGACG (ssRNA, fully 2'-OMe) [GRX1187]
Kd ([11]; stem 2 extended by 1 bp): 64.2 nM

CGUCAUCGGGUUGCUACCCAAGGCACCAGGAGGUGCGAUGACG (ssRNA, fully 2'-OMe) [GRX2101]
Kd ([11]; stem 2 extended by 2 bp): 29.3 nM
